Key:
[1] = cited from earlier work; for solubility in water: temperature not given
[2] = tested on: Japan white breeding rabbits; details: rabbit, in vivo
Experimental: Six medically inspected Japan white breeding rabbits (conventional) were given a haircut along the spine and 6 spots of 2x3 cm each were closed patched with 0.5 g of Composition No.6 powder or 0.25 g of a powder of the compound represented by chemical formula 2 using bandage and gauze. Evaluation was conducted for the degree of erythema, scab formation and edema formation at a time interval of after 4 hours, 1 day, 2 days, 3 days, 4 days and 5 days.
Evaluation standard (Draize method)
From the above table, the following primary irritancy was obtained. Irritation index was obtained from Equation 1. Irritation index was obtained from the following table. Irritation index and safety classification are as follows. [formula]
Evaluation was conducted according to the method employed in Example 6.

[3] = Elution test of microcapsule powder in Isopal G; format: physicochemical; details: unencapsulated compound of chemical formula 1, temperature not given
Experimental: Elution test was conducted on microcapsule powder using Isopal G (aliphatic solvent EXXON Chemical company) which dissolves the compound of the chemical formula 1 in an optional rate. […] of the capsule powder was added to 10ml of Isopal G, and the mixture was maintained at room temperature or at 40 °C for 12 hours, and the amount of the compound of the chemical formula 1 eluted from the microcapsules was determined by gas chromatography. The rate of elution (active ingredient in Isopal G/added amount of active ingredient) was calculated.

Row | SMILES | water solubility (25 °C) [1] | Skin irritation, safety classification (irritation index) [2] | solubility in water [1] [ppm] | rate of elution (active ingredient in Isopal G/added amount of active ingredient) [3] [% elution]
1 | CCCCCCCCn1sc(Cl)c(Cl)c1=O [Compound of formula 4, 4,5-Dichloro-2-n-octyl-4-isothiazoline-3-one] | 6 ppm | strong irritation |  | 
2 | N#CSCSc1nc2ccccc2s1 [Compound of the chemical formula 7, thiocyano methylthiobenzothiazol] |  | medium irritant | 100 | 
3 | S=C=Nc1ccc(Cl)c(Cl)c1 [Unencapsulated, 3,4-dichlorophenyl-isothiocyanate] |  |  |  | 100
4 | O=S1(=O)CC(Cl)(Cl)C(Cl)(Cl)C1 [compound of the chemical formula 2, Tetrachlorotetrahydrothiophene-1,1-dioxide] | about 900 ppm |  |  | 
5 | CNC(=O)Oc1cccc2c1OC(C)(C)C2 [compound of the chemical formula 6, 2,3-dihydro-2,2-dimethylbenzofuran-7-yl-methylcarbamate] |  |  | 700 | 

Reference: patent publication EP0686425A1, “PROCESS FOR PRODUCING MICROCAPSULE OF HYDROPHOBIC DRUG” (SANSUI CO., LTD., priority 1993, dated 1995)
